Laboratory results reported in PMC7343746, “(2S, 4R)-4-[^18F]Fluoroglutamine for In vivo PET Imaging of Glioma Xenografts in Mice: an Evaluation of Multiple Pharmacokinetic Models” (Molecular Imaging and Biology, 2020).

Test system: patient-derived BT3 glioma cells
Assay: Yokoi plot, orthotopic model
Format: in vivo, BALB/cOlaHsd-Foxn1^nu mouse
Conditions: for Yokoi K1 (AB) plasma to tissue transport rate / Yokoi K1/k2 (AB) binding potential / Yokoi k2 (AB) tissue to plasma transport rate: AB input; for Yokoi K1 (PC) plasma to tissue transport rate / Yokoi K1/k2 (PC) binding potential / Yokoi k2 (PC) tissue to plasma transport rate: PC input
Method: Image analysis was performed using CARIMAS software published and freely distributed by the Turku PET Center (http://turkupetcentre.fi/carimas/). CT scans were used as rough anatomical reference while tumor regions of interest (ROI) were hand-drawn based upon observed spikes of radioactivity in the PET images at locations correlating with recorded tumor grafts. Control muscle ROIs were drawn on the side opposite to the tumor in the leg flank muscle (based on CT) while the blood ROI was drawn based upon heart anatomical location and observed PET image radioactivity spike during the initial 20 s of imaging in the left ventricle. Standardized uptake values (SUV) were calculated with respect to ROI volume, mean and max tumor radioactivity, total injected radioactivity dose (corrected for tail, cannula, and syringe residual radioactivity), and animal weight, and were additionally presented as tumor-to-background ratio (TBR, tumor-to-healthy brain region for intracranial gliomas and tumor-to-muscle for subcutaneous gliomas) as defined by recent glioma research literature standards. Mean and maximum TBR values were reported as ROI radioactivity per volume divided by mean background radioactivity per volume. The blood radioactivity SUV and gender-specific metabolite-corrected blood radioactivity SUV were then applied to multiple pharmacokinetic models to characterize the flux of the tracer (further described in the “Modeling” section).
Using the heart’s left ventricle ROI from the PET data as an uncorrected radioactivity level input and the bioavailable parent-tracer fraction (results: Eqs. 3 and 4 applied to the uncorrected input) as the corrected input, multiple models were investigated to characterize the tissue uptake dynamics. Two-compartment modeling and Logan, Patlak, and Yokoi plots were used to separately model the pharmacokinetics for the gliomas (both subcutaneous and orthotopic loci) and their respective control tissues (healthy muscle and healthy brain, respectively). Where indicated, means plus/minus standard deviations are reported. Difference in parameters for uncorrected versus correct and target tissue versus their respective control regions were tested with students’ paired t tests with P values lower than 0.05 being considered significant.

Yokoi K1 (AB) plasma to tissue transport rate (Subject A brain (control)): 0.018 mL min-1 mL-1
Yokoi K1/k2 (AB) binding potential (Subject A brain (control)): 0.34 mL mL-1
Yokoi k2 (AB) tissue to plasma transport rate (Subject A brain (control)): 0.054 min⁻¹
Yokoi K1 (PC) plasma to tissue transport rate (Subject A brain (control)): 0.019 mL min-1 mL-1
Yokoi K1/k2 (PC) binding potential (Subject A brain (control)): 0.68 mL mL-1
Yokoi k2 (PC) tissue to plasma transport rate (Subject A brain (control)): 0.028 min⁻¹
Yokoi K1 (AB) plasma to tissue transport rate (Subject A glioma max.): 0.120 mL min-1 mL-1
Yokoi K1/k2 (AB) binding potential (Subject A glioma max.): 1.59 mL mL-1
Yokoi k2 (AB) tissue to plasma transport rate (Subject A glioma max.): 0.075 min⁻¹
Yokoi K1 (PC) plasma to tissue transport rate (Subject A glioma max.): 0.121 mL min-1 mL-1
Yokoi K1/k2 (PC) binding potential (Subject A glioma max.): 2.95 mL mL-1
Yokoi k2 (PC) tissue to plasma transport rate (Subject A glioma max.): 0.041 min⁻¹
Yokoi K1 (AB) plasma to tissue transport rate (Subject A o.t. glioma): 0.078 mL min-1 mL-1
Yokoi K1/k2 (AB) binding potential (Subject A o.t. glioma): 1.50 mL mL-1
Yokoi k2 (AB) tissue to plasma transport rate (Subject A o.t. glioma): 0.052 min⁻¹
Yokoi K1 (PC) plasma to tissue transport rate (Subject A o.t. glioma): 0.083 mL min-1 mL-1
Yokoi K1/k2 (PC) binding potential (Subject A o.t. glioma): 2.96 mL mL-1
Yokoi k2 (PC) tissue to plasma transport rate (Subject A o.t. glioma): 0.028 min⁻¹
Yokoi K1 (AB) plasma to tissue transport rate (Subject B brain (control)): 0.015 mL min-1 mL-1
Yokoi K1/k2 (AB) binding potential (Subject B brain (control)): 0.33 mL mL-1
Yokoi k2 (AB) tissue to plasma transport rate (Subject B brain (control)): 0.045 min⁻¹
Yokoi K1 (PC) plasma to tissue transport rate (Subject B brain (control)): 0.015 mL min-1 mL-1
Yokoi K1/k2 (PC) binding potential (Subject B brain (control)): 0.69 mL mL-1
Yokoi k2 (PC) tissue to plasma transport rate (Subject B brain (control)): 0.022 min⁻¹
Yokoi K1 (AB) plasma to tissue transport rate (Subject B glioma max.): 0.046 mL min-1 mL-1
Yokoi K1/k2 (AB) binding potential (Subject B glioma max.): 1.29 mL mL-1
Yokoi k2 (AB) tissue to plasma transport rate (Subject B glioma max.): 0.036 min⁻¹
Yokoi K1 (PC) plasma to tissue transport rate (Subject B glioma max.): 0.049 mL min-1 mL-1
Yokoi K1/k2 (PC) binding potential (Subject B glioma max.): 2.79 mL mL-1
Yokoi k2 (PC) tissue to plasma transport rate (Subject B glioma max.): 0.017 min⁻¹
Yokoi K1 (AB) plasma to tissue transport rate (Subject B o.t. glioma): 0.045 mL min-1 mL-1
Yokoi K1/k2 (AB) binding potential (Subject B o.t. glioma): 0.99 mL mL-1
Yokoi k2 (AB) tissue to plasma transport rate (Subject B o.t. glioma): 0.046 min⁻¹
Yokoi K1 (PC) plasma to tissue transport rate (Subject B o.t. glioma): 0.047 mL min-1 mL-1
Yokoi K1/k2 (PC) binding potential (Subject B o.t. glioma): 1.96 mL mL-1
Yokoi k2 (PC) tissue to plasma transport rate (Subject B o.t. glioma): 0.024 min⁻¹
Structure (SMILES): NC(=O)[C@H]([18F])C[C@H](N)C(=O)O [[^18F]FGln, (2S, 4R)-4-[^18F]fluoroglutamine]
